Experimental data: PMC2585998 (Molecular cell, 2008)

Molecular target: SpoIVA (IVA; His6-SpoIVA) (Bacillus subtilis, UniProt P35149, K30A)
Test: ATPase, ADP production by TLC of alpha-32P-ATP
Type: biochemical
Details: Walker A mutant, diminished hydrolysis; 10 mM MgCl2, pH 7.5, 37 C

Chain of SpoIVA (IVA; His6-SpoIVA) (P35149 whole entry K30A): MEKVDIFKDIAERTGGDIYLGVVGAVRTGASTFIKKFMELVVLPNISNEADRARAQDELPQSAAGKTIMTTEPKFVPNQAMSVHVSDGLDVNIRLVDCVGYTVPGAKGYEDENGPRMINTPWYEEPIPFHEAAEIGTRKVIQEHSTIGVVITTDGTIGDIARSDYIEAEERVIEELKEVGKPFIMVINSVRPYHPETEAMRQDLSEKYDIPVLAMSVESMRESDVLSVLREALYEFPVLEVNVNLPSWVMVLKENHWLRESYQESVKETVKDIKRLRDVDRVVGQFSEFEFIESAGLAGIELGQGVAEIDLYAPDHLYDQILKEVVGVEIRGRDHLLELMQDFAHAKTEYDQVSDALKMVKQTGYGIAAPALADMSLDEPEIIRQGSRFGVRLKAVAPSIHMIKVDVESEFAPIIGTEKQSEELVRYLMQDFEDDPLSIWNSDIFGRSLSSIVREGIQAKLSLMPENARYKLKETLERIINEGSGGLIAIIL

SMILES: Nc1ncnc2c1ncn2[C@@H]1O[C@H](COP(=O)(O)OP(=O)(O)OP(=O)(O)O)[C@@H](O)[C@H]1O [ATP]
- ATPase, ADP production by TLC of alpha-32P-ATP: Incubation of ATP with IVA^K30A, in contrast, led to the diminished accumulation of ADP
